pIC50: −log10 of the molar value.

One may read the pIC50 as the negative decadic logarithm of the IC50, by convention in mol/L.

For one assay, the system named is HEK293 cells. Nature of the assay: HEK293 VLCFA-LPC IC50 determination (13C-labeled C26:0 LPC by UHPLC/MS). In kind it is cell-based, human. Conditions: Homo sapiens, HEK293, 48 h, average of one or more replicates; 13C-labeled C26:0 LPC, 48 hours; read-out: Average HEK293 IC50. The procedure, abridged: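 Suspension HEK293 cells (final 0.5 million/mL after mixing with equal volume) incubated 48 hours with compound plus 13C-acetate (1.0 mg/mL in added media), shaking at 37° C. Lipids extracted with hexane/isopropanol or methanol, C13:0 LPC standard. UHPLC/MS of 13C-labeled C26:0 LPC (638.500/104.100 m/z); IC50 by four-parameter fit.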
Consider `N#Cc1cncc(-n2ccc(NC(=O)C3(c4ccccc4F)CC3)n2)c1` [Compound 318, N-[1-(5-cyano-3-pyridyl)pyrazol-3-yl]-1-(2-fluorophenyl)cyclopropanecarboxamide], for which the pIC50 is under 5.30. Consider `COc1ncccc1-n1ccc(NC(=O)C2(c3ccccc3F)CC2)n1` [Compound 317, 1-(2-fluorophenyl)-N-[1-(2-methoxy-3-pyridyl)pyrazol-3-yl]cyclopropanecarboxamide], for which the pIC50 is under 5.30. Turning to `CC(C)(O)c1cc(-n2ccc(NC(=O)C3(c4ccccc4F)CC3)n2)ccn1` [Compound 334, 1-(2-fluorophenyl)-N-[1-[2-(1-hydroxy-1-methyl-ethyl)-4-pyridyl]pyrazol-3-yl]cyclopropanecarboxamide], the pIC50 was under 5.30. Same read-out and setting: with `N#Cc1cnccc1-n1ccc(NC(=O)C2(c3ccccc3F)CC2)n1` [Compound 335, N-[1-(3-cyano-4-pyridyl)pyrazol-3-yl]-1-(2-fluorophenyl)cyclopropanecarboxamide] the figure was under 5.30.

The assay is the same for the next values; noted with them: Homo sapiens, HEK293, HEK293 cells; average of one or more replicates; read-out: Average HEK293 IC50.
As to `COc1cc(-n2ccc(NC(=O)C3(c4ncccc4F)CC3C)n2)ccn1` (stereo not shown) [Compound 510, 1-(3-fluoro-2-pyridyl)-N-[1-(2-methoxy-4-pyridyl)pyrazol-3-yl]-2-methyl-cyclopropanecarboxamide], the pIC50 was 6.17.

As for `O=C(Nc1ccn(-c2ccccc2)n1)[C@@]1(c2ccccc2)CC12CCC2` [Compound 146, (2S)-2-phenyl-N-(1-phenylpyrazol-3-yl)spiro[2.3]hexane-2-carboxamide], the pIC50 is 7.06. The same measure, in the same setting: the value for `O=C(Nc1ccn(-c2ccncc2)n1)C1(c2ccccc2)CC1(F)F` (racemic) [Compound 419, 2,2-difluoro-1-phenyl-N-(1-(pyridin-4-yl)-1H-pyrazol-3-yl)cyclopropane-1-carboxamide] was 6.62; that for `O=C(Cn1nccn1)Nc1ccn(-c2ccnc(F)c2)n1` [Compound 299, N-[1-(2-fluoro-4-pyridyl)pyrazol-3-yl]-2-(triazol-2-yl)acetamide] was 5.30. Still for that read-out and setting: the value for `O=C(Nc1ccn(-c2ccnc(F)c2)n1)C1(c2cc(Cl)ccc2F)CC1` [Compound 264, 1-(5-chloro-2-fluoro-phenyl)-N-[1-(2-fluoro-4-pyridyl)pyrazol-3-yl]cyclopropanecarboxamide] was 6.72; that for `O=C(Nc1ccn(-c2ccccc2)n1)C1(c2ccncc2F)CC1` [Compound 280, 1-(3-fluoro-4-pyridyl)-N-(1-phenylpyrazol-3-yl)cyclopropanecarboxamide] was 6.11; that for `O=C(Nc1ccn(-c2ccnc(F)c2)n1)C1(c2cc(F)ccc2F)CC1` [Compound 260, 1-(2,5-difluorophenyl)-N-[1-(2-fluoro-4-pyridyl)pyrazol-3-yl]cyclopropanecarboxamide] was 6.77.

Regarding `O=C(Cc1ccc(F)cc1)Nc1ccn(-c2ccc(Cl)nc2)n1` [Compound 105, N-[1-(6-chloro-3-pyridyl)pyrazol-3-yl]-2-(4-fluorophenyl)acetamide], the pIC50 was under 5.30. The same measure, in the same setting: the value for `Cc1ccc(-n2ccc(NC(=O)C3(c4ccccc4)CC3)n2)cn1` [Compound 118, N-(1-(6-methylpyridin-3-yl)-1H-pyrazol-3-yl)-1-phenylcyclopropane-1-carboxamide] was 5.89; that for `O=C(Nc1ccn(-c2ccc(F)cc2)n1)C1(c2ncccc2F)CC12CC2` (stereo not shown) [Compound 521, N-[1-(4-fluorophenyl)pyrazol-3-yl]-2-(3-fluoro-2-pyridyl)spiro[2.2]pentane-2-carboxamide] was 5.64. Regarding `O=C(Nc1ccn(-c2ccnc(F)c2)n1)C1(c2ccccc2)CCOCC1` [Compound 174, N-[1-(2-fluoro-4-pyridyl)pyrazol-3-yl]-4-phenyl-tetrahydropyran-4-carboxamide], the pIC50 was under 5.30.

For the compound `Cc1ccc(-n2ccc(NC(=O)Cc3ccccc3F)n2)cn1` [Compound 119, 2-(2-fluorophenyl)-N-[1-(6-methyl-3-pyridyl)pyrazol-3-yl]acetamide], the pIC50 was 5.46. The same measure, in the same setting: with `COc1cc(-n2ccc(NC(=O)C3(c4cccs4)CC3)n2)ccn1` [Compound 478, N-[1-(2-methoxy-4-pyridyl)pyrazol-3-yl]-1-(2-thienyl)cyclopropanecarboxamide] the figure was 6.92; with `O=C(Nc1ccn(-c2cncc(OC(F)F)c2)n1)C1(c2cccs2)CC1` [Compound 484, N-[1-[5-(difluoromethoxy)-3-pyridyl]pyrazol-3-yl]-1-(2-thienyl)cyclopropanecarboxamide], under 5.30. The same measure, in the same setting: the value for `O=C(Nc1ccn(-c2ccnc(C(F)F)c2)n1)C1(c2ccccc2F)CC1` [Compound 396, N-[1-[2-(difluoromethyl)-4-pyridyl]pyrazol-3-yl]-1-(2-fluorophenyl)cyclopropanecarboxamide] was under 5.30; that for `O=C(Cc1cc(F)ccc1F)Nc1ccn(-c2ccccc2)n1` [Compound 59, 2-(2,5-difluorophenyl)-N-(1-phenylpyrazol-3-yl)acetamide] was 6.60. Same read-out and setting: with `O=C(Cc1ccccc1F)Nc1ccn(-c2ccnc(C(F)(F)F)c2)n1` [Compound 122, 2-(2-fluorophenyl)-N-[1-[2-(trifluoromethyl)-4-pyridyl]pyrazol-3-yl]acetamide] the figure was 5.80. In the case of `O=C(Nc1ccn(-c2cncc(F)c2)n1)C1(c2ccccc2F)CC1` [Compound 180, 1-(2-fluorophenyl)-N-[1-(5-fluoro-3-pyridyl)pyrazol-3-yl]cyclopropanecarboxamide], the pIC50 was 7.70. Still for that read-out and setting: the value for `O=C(Nc1ccn(-c2cc(F)ccc2F)n1)C1(c2ccccc2)CC1` [Compound 163, N-[1-(2,5-difluorophenyl)pyrazol-3-yl]-1-phenyl-cyclopropanecarboxamide] was 5.35; that for `O=C(Nc1ccn(-c2ccc(F)cc2)n1)C1(c2ncccc2F)CC1` [Compound 456, N-[1-(4-fluorophenyl)pyrazol-3-yl]-1-(3-fluoro-2-pyridyl)cyclopropanecarboxamide] was 7.00.

As to `O=C(Cc1ccc(F)c(C(F)(F)F)c1)Nc1ccn(-c2ccccc2)n1` [Compound 71, 2-[4-fluoro-3-(trifluoromethyl)phenyl]-N-(1-phenylpyrazol-3-yl)acetamide], the pIC50 was under 5.30. Regarding `O=C(Nc1ccn(-c2cncc(F)c2)n1)C1(c2ncccn2)CC1` [Compound 529, N-[1-(5-fluoro-3-pyridyl)pyrazol-3-yl]-1-pyrimidin-2-yl-cyclopropanecarboxamide], the pIC50 was 5.89. Still for that read-out and setting: with `O=C(Nc1ccn(-c2cncc(F)c2)n1)C1(c2cccs2)CC1` [Compound 483, N-[1-(5-fluoro-3-pyridyl)pyrazol-3-yl]-1-(2-thienyl)cyclopropanecarboxamide] the figure was over 7.70; with `O=C(Nc1ccn(-c2ccccc2)n1)C1(c2cc(Cl)ccc2F)CC1` [Compound 265, 1-(5-chloro-2-fluoro-phenyl)-N-(1-phenylpyrazol-3-yl)cyclopropanecarboxamide], 6.62. Same read-out and setting: with `O=C(Nc1ccn(-c2ccccc2)n1)C1(c2ccccc2)COC1` [Compound 144, 3-phenyl-N-(1-phenylpyrazol-3-yl)oxetane-3-carboxamide] the figure was 6.59. Same read-out and setting: with `O=C(Nc1ccn(-c2ccccn2)n1)C1(c2ccccc2F)CC1` [Compound 210, 1-(2-fluorophenyl)-N-[1-(2-pyridyl)pyrazol-3-yl]cyclopropanecarboxamide] the figure was 6.77. Regarding `COc1ccc(CC(=O)Nc2ccn(-c3ccccc3)n2)cc1C` [Compound 62, 2-(4-methoxy-3-methyl-phenyl)-N-(1-phenylpyrazol-3-yl)acetamide], the pIC50 is 5.43.

Consider `Cn1ccc(-n2ccc(NC(=O)C3(c4ccccc4)CC3)n2)n1` [Compound 231, N-[1-(1-methylpyrazol-3-yl)pyrazol-3-yl]-1-phenyl-cyclopropanecarboxamide], for which the pIC50 is under 5.30. Same read-out and setting: with `O=C(Nc1ccn(-c2ccccn2)n1)C1(c2ccccc2)CC1` [Compound 212, 1-phenyl-N-[1-(2-pyridyl)pyrazol-3-yl]cyclopropanecarboxamide] the figure was 6.72; with `CCOc1ccc(C2(C(=O)Nc3ccn(-c4ccccc4)n3)CC2)cc1` [Compound 33, 1-(4-ethoxyphenyl)-N-(1-phenylpyrazol-3-yl)cyclopropanecarboxamide], 6.00. Same read-out and setting: the value for `Cc1cccc(CC(=O)Nc2ccn(-c3ccccc3)n2)c1` [Compound 43, 2-(m-tolyl)-N-(1-phenylpyrazol-3-yl)acetamide] was 5.72; that for `O=C(Nc1ccn(-c2ccncc2)n1)C1(c2ccccc2)CC1` [Compound 100, 1-phenyl-N-[1-(4-pyridyl)pyrazol-3-yl]cyclopropanecarboxamide] was 7.48. Same read-out and setting: the value for `O=C(Nc1ccn(-c2ccc(F)cc2F)n1)C1(c2ccccc2F)CC1` [Compound 448, N-[1-(2,4-difluorophenyl)pyrazol-3-yl]-1-(2-fluorophenyl)cyclopropanecarboxamide] was 6.85. Turning to `CC1(C)CC1(C(=O)Nc1ccn(-c2cncc(F)c2)n1)c1ncccc1F` (stereo not shown) [Compound 511, 1-(3-fluoro-2-pyridyl)-N-[1-(5-fluoro-3-pyridyl)pyrazol-3-yl]-2,2-dimethyl-cyclopropanecarboxamide], the pIC50 was 6.51. On the same count and under the same terms, the value for `O=C(Nc1ccn(-c2cncc(Cl)c2)n1)C1(c2ncccc2F)CC1` [Compound 455, N-[1-(5-chloro-3-pyridyl)pyrazol-3-yl]-1-(3-fluoro-2-pyridyl)cyclopropanecarboxamide] was 7.00; that for `CC1(C)CC1(C(=O)Nc1ccn(-c2ccncc2)n1)c1ncccc1F` (stereo not shown) [Compound 518, 1-(3-fluoro-2-pyridyl)-2,2-dimethyl-N-[1-(4-pyridyl)pyrazol-3-yl]cyclopropanecarboxamide] was 5.92.

The values are drawn from patent publication US20180251431A1 (VERTEX PHARMACEUTICALS INCORPORATED, priority 2016, published 2018).
